A word on the IC50: it is the concentration needed to halve the response being measured.

The structures appear in SMILES notation.

We go through 3 compounds from US20130053434A1, “IRREVERSIBLE INHIBITORS USEFUL FOR THE TREATMENT OF KINASE-RELATED PATHOLOGIES” (CENTRE NATIONAL DE LA RECHERCHE SCIENTIFIQUE, priority 2009, published 2013).

Data set [1] is described as follows: dose finding study. Type of data set: in vivo. The source says: (§1) As a bench mark, the natural product LL Z-1640-2 was also included in the assay. […] Compound 3 and 5 were selected as prototypical examples of modified RALs for further investigations. As described in the method section, both of these compounds derived from a common synthetic intermediate and can be readily prepared in gram quantities. […] Primary tumor weight confirmed these observations. A key objective of this study was to measure the effect of these compounds on metastasis. Upon termination of the study, the lungs were inspected for metastatic nodules and the ex-vivo luciferase activity of lung homogenates was measured. […] It should be noted that these compounds were also shown to inhibit the inflammation pathways which have been implicated in facilitating metastasis.

For data set [2], the system named is VEGFRs. In words: KinomeScan kinase selectivity profile (50 kinases): VEGFRs. The note with it: 1 μM. It is filed as binding. The source says: The selectivity profile was measure using the KinomeScan™ technology (http://www.kinomescan.com/) based on active-site dependent competition binding assay (Karaman, M. W., et al. (2008) Nat. Biotechnol. 26, 127-32; Fabian, M. A., et al. (2005) Nat. Biotechnol. 23, 329-36). Compounds 3 and 5 were profiled against a panel of 50 kinases including 42 kinases from the group of 48 kinases predicted by Santi et al. (Schirmer, A., et al. (2006) Proc. Natl. Acad. Sci. USA 103, 4234-9) to be targeted by hypothemycin and 5 mutants of FLT3 as well as 3 mutants of KIT. Both compounds were assayed at 1 μM. The results are expressed as a percentage of signal between a negative (DMSO) and positive (know binder) control [(test compound−positive control)/([…])×100].

Data set [3] can be described thus: plasma half-life. It is filed as in vitro ADME.
Data set [4] concerns RENCA-LN cells. In words: RENCA cell proliferation assay. Type of data set: cell-based, Murine. As for the experimental part: Murine RENCA cells were originally obtained from a tumor that arose spontaneously in the kidney of BALB/c mice. Histologically, RENCA consists of granular cell type adenocarcinoma, which is pleomorphic with large nuclei. To obtain RENCA-LN, RENCA cells were transduced using a retrovirus encoding a luciferase-neomycin fusion protein and selected using 1 mg/ml G418. RENCA-LN cells were plated with 1.500 cells/150 μl/well in DMEM supplemented with 10% FCS in 96 well culture dishes. The following day the serial diluted test samples (from 1 mM to 0.1 μM in DMSO) were mixed with medium (1:25) and 50 μl of the mix was added to each well of the cultured cells (1:4) resulting in a final DMSO concentration of 1%. Cells were grown for 72 h at 10% CO2 and 37° C. After 72 h RENCA-LC cells were lysed in 100 μL luciferase assay buffer, and 10 μl of the lysate was assayed for luciferase activity. The mean value of the low controls of each 96 well cell culture plate represents the background which was subtracted from all other data points of the respective plate. Raw data were converted into percent proliferation relative to the high control, which were set to 100%. […] determination was done with GraphPad Prism 5.01 software with constrain of bottom to 0 and top to 100 using a nonlinear regression curve fit with variable hill slope. The equation is a four-parameter logistic equation. […]

The subject of data set [5] is orthotopically implanted RENCA-LN cells. In words: orthotopic murine renal cell carcinoma (RENCA) model, in vivo efficacy. As to conditions: for tumor growth by bioluminescence and primary tumor volume: 20 mg/kg i.p. The protocol: RENCA-LN cells were obtained and cultured as described above. Sixty female BALB/c mice of 5 to 6 weeks were orthotopically implanted RENCA-LN cells into the left kidney (4×10^5 cells in 25 μl aliquots into the subcapsular space through a flank incision, Day 0). The mice were randomly divided into 5 groups of 12 mice each. On day 2, therapy was initiated. Animals in the vehicle control group (group 1) received 10 ml/kg Vehicle (PBS w/o Ca/Mg, 10% DMSO, 40% PEG-300) i.p. once daily until day 19. Animals of positive control group (group 2) received 40 mg/kg Sunitinib (Sutent®) p.o. once daily until day 20. Animals of treatment group 3 and 4 received 20 mg/kg of 3 once daily and every other day respectively (i.p.). Animals of treatment group 5 received 20 mg/kg of 5 once daily (i.p.). Due to partial weight loss, therapy in Groups 3 and 5 was suspended on days 11 and 12 and stopped on day 17. On day 20, the study was terminated and a necropsy performed. All animals were weighted, anaesthetised by isoflurane and killed by exsanguination. Two animals in group 1 were found dead on day 19 and 1 animal in group 3 and 5 on day 11 and 9 respectively. At necropsy, primary tumor weight and volume, lung weight and number of lung metastases were determined. Primary tumor tissues were collected and divided into two parts. One part of each tumor was snap-frozen in liquid nitrogen and stored at −80° C. whereas the other part was analyzed via ex vivo bioluminescence imaging. During the course of the study, the growth of the orthotopically implanted RENCA tumors was monitored on days 7, 14 and 19 using in vivo bioluminescence imaging. For this purpose, luciferin was injected intraperitoneally (i.p.) into the mice and light emission was measured post injection (10 min) using a NightOWL LB 981 bioluminescence imaging system (Berthold Technologies, Germany). The migration of RENCA tumor cells into the lung (metastasis) was analyzed post necropsy by counting nodules and using the luciferase assay. For this purpose, lungs were collected, homogenized, and assayed for luciferase activity using the kit from Promega (E1501) according to the manufacturer's instructions. Protein concentrations were determined using a Bradford assay and used to normalize luciferase activities (except for the primary tumor). A histological examination of the tumor vasculature was performed. For this purpose, cryosections of primary tumor tissues (thickness=5-10 μm) from the snap-frozen portion of the organ and blood vessels were visualized by immunohistochemical staining for CD 31 (PECAM-1; PharMingen, San Diego, Calif.). […] Statistical analysis of efficacy data was done using the Mann Whitney test.

Data set [6] in a line: solubility in aqueous buffers. It is filed as physicochemical. The note with it: compared with 5.
Text: as §1

Data set [7] concerns the target T1, VEGFR2 (Homo sapiens, UniProt P35968). In words: cellular inhibition of VEGFR2. It is filed as cell-based. As to conditions: triplicate. The protocol: FIG. 21. […] Assays were performed in triplicate.
To gage the undiscriminate reactivity of these enone resorcylic acids with thiols, fluoroenone 2 and the parent analogue lacking the fluoride were treated with one equivalent of DTT (2 mM) as a prototypical thiol nucleophile in PBS (pH 7.4) containing 1% DMSO. […] With fluoroenone 1 and 2 in hand, we tested their efficacy against VEGF-R2 which was frequently found to be the most inhibited kinase in our profile of cis-enone resorcylic acid library (Dakas, P. Y., et al. (2007) Angew. Chem. Int. Ed. Engl. 46, 6899-902; Jogireddy, R., et al. (2009) Chem. Eur. J. 15, 11498-506) and KIT which represents a less inhibited kinase. […] Their cellular activity against VEGF-R2 did parallel the biochemical activity. […] During the course of our investigation, a similar modification was reported by researchers from Esai (Du, H., et al. (2009) Bioorg. Med. Chem. Lett. 19, 6196-9) however, their medicinal chemistry efforts focused the inhibition of inflammation related pathways (MEKs and their down-stream regulatory effect on cytokines) (Du, H., et al. (2009) Bioorg. Med. Chem. Lett. 19, 6196-9; Goto, M., et al. (2009) J. Pharmacol. Exp. Ther. 331, 485-95). […]

The target of data set [8] is T1, VEGFR2. The data set is described as follows: biochemical inhibition of VEGF-R2. The note with it: FIG. 20. As for the experimental part:
It should be noted that as these compounds are expected to be irreversible inhibitors, the measured IC50 will depend on the procedure used and caution should be applied in comparing data from experiments performed under different conditions. To obtain a value which best reflects the rate of inactivation, the substrate and inhibitor were added simultaneously to the kinase solution. The data is shown in FIG. 9 (kinases have been ranked from the highest to least inhibited). As evident from FIG. 9, there is very little difference in relative selectivity of kinase inhibition throughout the library under these conditions. […] Overall, the trend of structure activity relationship which emerged from this screen is that the chiral methyl group at the ester position, while not essential, does provide higher activity (entry 6 vs. 10, 7 vs. 11 and 8 vs. 12). Substitution at the adjacent position with a hydroxyl group (entry 14 vs. 7) or at the β-position of the enone with a methyl abrogated activity (15-19). […] The trend of activity for the three natural products can be ranked as follows: alkene=epoxide>alkane. […] The two modifications of R^2 tested were beneficial in certain combinations. For example, the extra hydroxyl group present in fragment i does afford a significant (10 fold) gain of activity (8 vs. 7) in combination with fragment a. […]

A short description of data set [9]: isomerization of the enone under acid deprotection conditions. Type of data set: physicochemical. The note with it: prolonged reaction times. The source says: The synthesis commenced with the straightforward conversion of ester 5 into fluoroenal 7 via aldehyde 6 relying on a Horner-Wadsworth-Emmons reaction with triethyl 2-fluoro-2-phosphonoacetate to install the desired E-fluoroenoal (FIG. 19). Reaction of aldehyde 7 with […] afforded the desired alcohol as a 1:1 diasteromeric mixture which was reduced to the cis-alkene using Lindlar's catalyst (H2, Pd/CaCO3) to afford compound 9. As the hydroxyl group will ultimately be oxidized to the ketone, the lack of selectivity is inconsequential. Benzoyl protection of alcohol 9 thus afforded 10 wherein the terminal OPMB was converted to an iodide 11 (DDQ; I2, PPh3, imidazole). Attempts to engage this compound in alkylation chemistry with a phenol led to rapid elimination of the iodide to give a conjugated triene (product not shown). To circumvent this elimination which was thought to be facilitated by the presence of the alkene, compound 10 was dihydroxylated (2.5:1 dr in favor of the desired isomer 12) and converted to acetonide 13. Conversion of the terminal protected PMB ether into an iodide afforded the key intermediate 14. Following previously established chemistry, fragment 14 was coupled to the aromatic moiety 15 bearing a benzylic selenide by alkylation followed by oxidation/elimination of the selenide to afford 17. […]

The conditions of data set [10]: in vivo; cited from earlier work.
Data set [11] relates to colon and lung tumors. The note with it: mice bearing colon and lung tumors; cited from earlier work.
Data set [12] concerns the target ERK2 (Homo sapiens, UniProt P28482). As to conditions: covalent Michael adduct with cys166; cited from earlier work.

T1 sequence (P35968 20-1356, species assumed): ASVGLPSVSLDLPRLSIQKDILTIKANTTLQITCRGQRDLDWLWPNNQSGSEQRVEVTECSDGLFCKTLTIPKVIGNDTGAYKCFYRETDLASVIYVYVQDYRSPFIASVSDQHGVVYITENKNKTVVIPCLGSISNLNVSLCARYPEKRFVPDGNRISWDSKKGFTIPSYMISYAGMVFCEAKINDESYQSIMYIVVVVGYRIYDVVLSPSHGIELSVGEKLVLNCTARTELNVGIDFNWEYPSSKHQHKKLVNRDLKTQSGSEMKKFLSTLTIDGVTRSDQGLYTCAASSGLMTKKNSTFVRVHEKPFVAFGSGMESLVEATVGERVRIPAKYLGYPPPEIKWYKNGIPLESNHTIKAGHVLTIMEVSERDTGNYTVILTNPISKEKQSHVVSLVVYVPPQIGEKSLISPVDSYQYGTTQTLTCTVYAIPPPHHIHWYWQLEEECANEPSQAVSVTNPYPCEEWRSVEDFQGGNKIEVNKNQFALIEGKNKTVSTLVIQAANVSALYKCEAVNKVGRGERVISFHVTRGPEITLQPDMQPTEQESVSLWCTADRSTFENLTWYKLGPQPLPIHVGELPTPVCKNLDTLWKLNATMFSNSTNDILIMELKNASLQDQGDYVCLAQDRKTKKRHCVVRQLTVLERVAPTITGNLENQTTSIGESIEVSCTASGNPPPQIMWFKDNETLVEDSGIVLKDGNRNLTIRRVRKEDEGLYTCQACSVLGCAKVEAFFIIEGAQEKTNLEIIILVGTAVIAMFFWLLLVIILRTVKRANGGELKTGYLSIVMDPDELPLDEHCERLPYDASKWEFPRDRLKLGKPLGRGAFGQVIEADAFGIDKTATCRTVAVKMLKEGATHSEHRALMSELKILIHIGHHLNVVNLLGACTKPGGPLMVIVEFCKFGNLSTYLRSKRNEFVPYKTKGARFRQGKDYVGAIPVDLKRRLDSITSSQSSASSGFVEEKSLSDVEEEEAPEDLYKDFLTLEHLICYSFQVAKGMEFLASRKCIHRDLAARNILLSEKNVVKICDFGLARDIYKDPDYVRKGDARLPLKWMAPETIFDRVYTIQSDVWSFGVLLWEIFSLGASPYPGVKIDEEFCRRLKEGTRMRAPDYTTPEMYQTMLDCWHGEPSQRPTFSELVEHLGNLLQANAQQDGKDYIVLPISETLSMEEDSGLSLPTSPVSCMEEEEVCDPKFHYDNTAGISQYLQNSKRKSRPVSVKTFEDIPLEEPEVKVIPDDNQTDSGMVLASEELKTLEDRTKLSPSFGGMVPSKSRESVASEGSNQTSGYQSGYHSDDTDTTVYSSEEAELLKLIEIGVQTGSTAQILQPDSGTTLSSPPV
ERK2, sequence (P28482 whole entry, species assumed): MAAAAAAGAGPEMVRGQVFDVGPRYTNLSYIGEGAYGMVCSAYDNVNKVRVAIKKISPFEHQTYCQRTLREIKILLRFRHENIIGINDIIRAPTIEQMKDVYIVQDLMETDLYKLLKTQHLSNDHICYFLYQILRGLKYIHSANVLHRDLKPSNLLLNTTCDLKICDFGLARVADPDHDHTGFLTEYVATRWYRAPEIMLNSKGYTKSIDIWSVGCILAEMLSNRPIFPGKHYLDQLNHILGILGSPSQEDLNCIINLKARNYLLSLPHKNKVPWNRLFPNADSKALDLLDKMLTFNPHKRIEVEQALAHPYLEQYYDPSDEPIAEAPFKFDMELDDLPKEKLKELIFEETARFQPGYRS

Regarding `C[C@H]1C/C=C\C(=O)[C@@H](O)[C@@H](O)CCOc2cc(O)cc(O)c2C(=O)O1` [1agh], the tolerability entry in data set [1] (25 mg/kg) is “tolerated”. For the same compound, the “toxicity at high dose” value in [1] (75 mg/kg) is listed as “systemic toxicity”. Besides, the “inhibition of VEGFRs in kinase profile” value in data set [2] is “strongly inhibited”. In addition, the plasma half-life result in [3] is listed as “short plasma half life”. The “efficacy in inhibiting renal carcinoma cell line compared with natural product LL Z-1640-2” value in [4] (FIG. 14) is on record as “as effective as the natural product”. In addition, the IC50 in data set [4] (Mus musculus, Renca, FIG. 12, read-out: IC50, renal carcinoma line (RENCA)) lay in the range of 100 to 500 nM. The “tumor vasculature histology (CD-31 staining), angiogenesis” value in [5] (20 mg, q1d) is given as “strong inhibition of angiogenesis”. Besides, the “tumor growth in mice” value in data set [5] (20 and 10 mg/kg) is given as “clear reduction in tumor growth”. For the same compound, the “tumor growth by bioluminescence and primary tumor volume” value is “marginal decrease activity” in [5] (administered every other day) and “highly significant reduction of tumor growth” in data set [5] (daily dosing). For the same compound, the animal weights decrease in data set [5] (between day 2 and day 5, q1d) worked out at 8%. The “lung metastasis (metastatic nodules)” value in data set [5] (compared with untreated group, lungs inspected at termination) is “A similar result”. Further, the “luciferase activity from lung homogenates” value in data set [5] (ex vivo, compared with untreated group) is reported as “A similar result”. Besides, in [6], the “solubility in aqueous buffers” value is given as “notably more soluble in aqueous buffers than 5”.

Turning to `C[C@H]1C/C=C(/F)C(=O)[C@@H](O)[C@@H](O)C/C=C/c2cc(O)cc(O)c2C(=O)O1` [fluoroenone 1], the IC50 in [7] is 17 nM; in data set [8] it was 6.8 nM. Moreover, the “isomerization (epimerization) of the fluoroenone” value in [9] is on record as “no trace of isomerization was observed”.

For `COc1cc(O)c2c(c1)[C@H]1O[C@@H]1C[C@H](O)[C@H](O)C(=O)/C=C\C[C@H](C)OC2=O` [hypothemycin], the “efficacy in animal models” value in data set [10] is recorded as “effective in animal models”. Moreover, in data set [11], the tumor growth inhibition entry is reported as “only modest growth inhibition”. Moreover, the “inactivation of ERK2” value in data set [12] is on record as “irreversibly inactivates ERK2”.
